Assay results: PubChem BioAssay AID1552 (Sanford-Burnham Center for Chemical Genomics, 2009)
The source made the active and inactive calls. How the calls were made is not given here.

Each compound was assayed against Ubiquitin-conjugating enzyme E2 N (Homo sapiens) (UniProt P61088) (assay: UBE2N binders by NMR, biophysical, purified protein (AID 1552)). Details: NMR binding to purified UBE2N.
Sequence of Ubiquitin-conjugating enzyme E2 N (Homo sapiens) (P61088 whole entry, looked up): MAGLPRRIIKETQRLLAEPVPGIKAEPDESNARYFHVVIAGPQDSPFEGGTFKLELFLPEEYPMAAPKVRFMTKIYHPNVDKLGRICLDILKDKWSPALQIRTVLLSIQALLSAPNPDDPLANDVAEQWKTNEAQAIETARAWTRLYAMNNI
O=C(O)C1CCN(c2ccc(C(F)(F)F)cn2)CC1 was tested, and the Kd was > 4 mM (inactive).
For Cc1ccc(S(C)(=O)=O)s1, the Kd was > 4 mM (inactive).
For Nc1cccc(-c2cnco2)c1, the Kd was > 4 mM (inactive).
With CC1=C(CCC(=O)O)c2cc3nc(cc4[nH]c(cc5[nH]c(cc1n2)c(C)c5C(C)O)c(C)c4C(C)O)C(C)=C3CCC(=O)O (stereo not given) the Kd was > 4 mM (inactive).
C/C=C(\C)C(=O)OC1[C@@H]2C=C3C(CC[C@]4(C)C3CC(=O)O[C@H]4c3ccoc3)C(C)(C2=O)[C@@H](C(O)C(=O)OC)C1(C)C (stereo not given in full) was tested, and the Kd was > 4 mM (inactive).
With O=C(O)/C=C/C=C/c1ccccc1 the Kd was > 4 mM (inactive).
With c1csc(-c2nn[nH]n2)c1 the Kd was > 4 mM (inactive).
For O=C(c1cc2ccccc2o1)N1CCCCCC1, the Kd was > 4 mM (inactive).
In the case of O=C(CSc1ccccc1)N1CCC2(CC1)OCCO2, the Kd was > 4 mM (inactive).
For COc1ccc(Cl)cc1NC(=O)C(N)=O, the Kd was > 4 mM (inactive).
For O=C(NN1C(=O)c2ccccc2C1=O)c1cccs1, the Kd was > 4 mM (inactive).
COc1cc2c3cc1Oc1c(OC)c(OC)cc4c1[C@@H](Cc1cccc(c1)Oc1ccc(c(O)c1)C[C@@H]3N(C)CC2)N(C)CC4 was tested, and the Kd was > 4 mM (inactive).
For CC(=O)Nc1ccc(S(N)(=O)=O)cc1, the Kd was > 4 mM (inactive).
For OCc1ccc2ncccc2c1, the Kd was > 4 mM (inactive).
For CSc1ccccc1NC(=O)c1ccoc1C, the Kd was > 4 mM (inactive).
With CC(C)n1nnc2cc(C(=O)O)ccc21 the Kd was > 4 mM (inactive).
In the case of CC(=O)Nc1ccn(Cc2c(F)cccc2Cl)n1, the Kd was > 4 mM (inactive).
In the case of Cc1ccsc1/C=c1\sc2ncnn2c1=O, the Kd was > 4 mM (inactive).
With O=C1NC(=O)C(=Cc2cccs2)C(=O)N1 the Kd was > 4 mM (inactive).
With OCc1ccc(-n2ccnc2)cc1 the Kd was > 4 mM (inactive).
In the case of CNC(=O)C1=NCCCc2cc(OC)c(OC)cc21, the Kd was > 4 mM (inactive).
With Cc1cccc(C)c1N1C(=O)CCC1=O the Kd was > 4 mM (inactive).
In the case of O=C(O)CCC(=O)NCc1cccnc1, the Kd was > 4 mM (inactive).
In the case of COC(=O)c1ccc(NC(=O)CC2NCCNC2=O)cc1 (stereo not given), the Kd was > 4 mM (inactive).
With O=C(Nn1cnnc1)c1ccccc1-c1ccccc1 the Kd was > 4 mM (inactive).
For Nc1c2c3c(sc2nc(=O)n1N)CCCC3, the Kd was > 4 mM (inactive).
In the case of CCCNC(=O)c1cnc2n(c1=O)CCS2, the Kd was > 4 mM (inactive).
With Nc1nc(=S)n2c(n1)oc1ccccc12 the Kd was > 4 mM (inactive).
For NC(=O)C1CCN(C(=O)c2ccccc2)CC1, the Kd was > 4 mM (inactive).
For Cc1noc(C)c1C(=O)N1CCC2(CC1)OCCO2, the Kd was > 4 mM (inactive).
For O=C(O)c1ccccc1N1CCOCC1, the Kd was > 4 mM (inactive).
With CN(C)C(=O)N1CCN(C(=O)c2ccco2)CC1 the Kd was > 4 mM (inactive).
In the case of CC(=O)N1CCN(c2ccc(O)cc2)CC1, the Kd was > 4 mM (inactive).
In the case of CN1CCN(C(=S)c2ccc(N(C)C)cc2)CC1, the Kd was > 4 mM (inactive).
In the case of O=c1[nH]cc(CN2CCOCC2)c(=O)[nH]1, the Kd was > 4 mM (inactive).
With CNC[C@@H](O)c1ccc(O)c(O)c1 the Kd was > 4 mM (inactive).
With NCCCCNCCCN the Kd was > 4 mM (inactive).
With O=C1CC(=O)N(c2ccccc2)C(=O)N1 the Kd was > 4 mM (inactive).
For Cc1ccc(-c2nn3c(C)nnc3s2)cc1N, the Kd was > 4 mM (inactive).
With NC(=O)CSCc1c(Cl)cccc1Cl the Kd was > 4 mM (inactive).
In the case of Nc1nc2c3ccccc3nc(Cc3ccccc3)n2n1, the Kd was > 4 mM (inactive).
With Cc1nnsc1C(=O)O the Kd was > 4 mM (inactive).
In the case of Cc1[nH]n(-c2ccccc2)c(=O)c1[N+](=O)[O-], the Kd was > 4 mM (inactive).
With O=C(O)C1CNc2ccccc2O1 (stereo not given) the Kd was > 4 mM (inactive).
With Cn1ccc(NC(=S)NC2CCCC2)n1 the Kd was > 4 mM (inactive).
For CCN(CC)C(=O)c1n[nH]c(=O)c2ccccc12, the Kd was > 4 mM (inactive).
NCc1ccc(N2CCOCC2)cc1 was tested, and the Kd was > 4 mM (inactive).
For COc1cc(NC(=O)c2ccccc2)c(C)cc1N, the Kd was > 4 mM (inactive).
In the case of O=C(O)c1cccnc1N1CCOCC1, the Kd was > 4 mM (inactive).
Oc1ccccc1C(=S)N1CCCCCC1 was tested, and the Kd was > 4 mM (inactive).
For CC1(C)C=CC(=O)[C@@]2(C)C1CC(=O)[C@]1(C)C2CC[C@@]2(C)[C@H](c3ccoc3)OC(=O)C3OC321 (stereo not given in full), the Kd was > 4 mM (inactive).
Cc1ccccc1NS(=O)(=O)c1ccc(F)cc1 was tested, and the Kd was > 4 mM (inactive).
For COC(=O)C[C@H]1C(C)(C)C(=O)[C@@H]2CC3=C4CC(=O)O[C@@H](c5ccoc5)[C@]4(C)CCC3C1(C)C2=O (stereo not given in full), the Kd was > 4 mM (inactive).
In the case of O=c1cc(-c2cc(O)c(O)c(O)c2)oc2cc(O)cc(O)c12, the Kd was > 4 mM (inactive).
O=C1CNC(=O)N1Cc1ccc(Br)cc1 was tested, and the Kd was > 4 mM (inactive).
With CN1CN(Cc2ccccc2)CN/C1=N/[N+](=O)[O-] the Kd was > 4 mM (inactive).
COc1ccccc1NC(N)=S was tested, and the Kd was > 4 mM (inactive).
In the case of NCc1ccccc1N1CCOCC1, the Kd was > 4 mM (inactive).
O=C1CC[C@]23/C=C/C(=O)NCCCCNCCCNC(=O)/C=C/c4ccc(c2c4)O[C@@H]3C1 was tested, and the Kd was > 4 mM (inactive).
For O=C(O)CCSc1nc2ccccc2s1, the Kd was > 4 mM (inactive).
